Source: patent US7700101B2, “Reagents and method for modulating Dkk-mediated interactions” (Wyeth, priority 2001, dated 2010)
Entries after “also recorded” stand apart in the source; their conditions may differ.

Tests used:
canonical Wnt pathway = test: Xenopus embryo assay, hDkk-1 dose-response (enlarged anterior structures); assay type: in vivo; conditions: 250 pg/embryo hDkk-1 RNA; FIG. 10
Protocol: (§1) mRNA for microinjection into Xenopus embryos is generated by in vitro transcription using the CDNA constructs in the pCS2^+ vector described above as template. RNA is synthesized using the Ambion mMessage mMachine high yield capped RNA transcription kit (Cat. #1340) following the manufacturer's specifications for the Sp6 polymerase reactions. RNA products were brought up to a final volume of 50 μl in sterile, glass-distilled water and purified over Quick Spin-Columns for Radiolabelled RNA Purification G50-Sephadex (Roche, Cat. #1274015) following the manufacturer's specifications. The resulting eluate was finally extracted with phenol:chloroform:isoamyl alcohol and isopropanol precipitated using standard protocols (Sambrook et al., 1989). Final RNA volumes were approximately 50 μl. RNA concentration was determined by absorbance values at 260 nm and 280 nm. RNA integrity was visualized by ethidium bromide staining of denaturing (formaldehyde) agarose gel electrophoresis (Sambrook et al., 1989). Various amounts of RNA (2 pg to 1 ng) are injected into the ventral blastomere of the 4- or 8-cell Xenopus embryo. These protocols are described in Moon et al., Technique-J. of Methods in Cell and Mol. Biol. 1: 76-89 (1989), and Peng, Meth. Cell. Biol. 36: 657-62 (1991). […]

[1] = tested on: HBM-mediated Wnt signaling; test: Xenopus embryo assay, hDkk-1 modulation of HBM+Wnt5a signaling; assay type: in vivo; conditions: hDkk-1 250 pg, FIG. 11
Protocol: as §1

HBM = biological target: T1, HBM (Homo sapiens, UniProt O75197, G171V); test: TCF-luciferase assay in HOB-03-CE6 cells, HBM; assay type: cell-based; conditions: Wnt1, FIG. 14
T1 construct: Full length Zmax/LRP5 and HBM ORF cDNA; expressed in transfected cells; host or cells: HOB-03-CE6 osteoblastic cells; U2OS osteosarcoma cells; HEK293
T1 sequence (O75197 32-1615 G171V): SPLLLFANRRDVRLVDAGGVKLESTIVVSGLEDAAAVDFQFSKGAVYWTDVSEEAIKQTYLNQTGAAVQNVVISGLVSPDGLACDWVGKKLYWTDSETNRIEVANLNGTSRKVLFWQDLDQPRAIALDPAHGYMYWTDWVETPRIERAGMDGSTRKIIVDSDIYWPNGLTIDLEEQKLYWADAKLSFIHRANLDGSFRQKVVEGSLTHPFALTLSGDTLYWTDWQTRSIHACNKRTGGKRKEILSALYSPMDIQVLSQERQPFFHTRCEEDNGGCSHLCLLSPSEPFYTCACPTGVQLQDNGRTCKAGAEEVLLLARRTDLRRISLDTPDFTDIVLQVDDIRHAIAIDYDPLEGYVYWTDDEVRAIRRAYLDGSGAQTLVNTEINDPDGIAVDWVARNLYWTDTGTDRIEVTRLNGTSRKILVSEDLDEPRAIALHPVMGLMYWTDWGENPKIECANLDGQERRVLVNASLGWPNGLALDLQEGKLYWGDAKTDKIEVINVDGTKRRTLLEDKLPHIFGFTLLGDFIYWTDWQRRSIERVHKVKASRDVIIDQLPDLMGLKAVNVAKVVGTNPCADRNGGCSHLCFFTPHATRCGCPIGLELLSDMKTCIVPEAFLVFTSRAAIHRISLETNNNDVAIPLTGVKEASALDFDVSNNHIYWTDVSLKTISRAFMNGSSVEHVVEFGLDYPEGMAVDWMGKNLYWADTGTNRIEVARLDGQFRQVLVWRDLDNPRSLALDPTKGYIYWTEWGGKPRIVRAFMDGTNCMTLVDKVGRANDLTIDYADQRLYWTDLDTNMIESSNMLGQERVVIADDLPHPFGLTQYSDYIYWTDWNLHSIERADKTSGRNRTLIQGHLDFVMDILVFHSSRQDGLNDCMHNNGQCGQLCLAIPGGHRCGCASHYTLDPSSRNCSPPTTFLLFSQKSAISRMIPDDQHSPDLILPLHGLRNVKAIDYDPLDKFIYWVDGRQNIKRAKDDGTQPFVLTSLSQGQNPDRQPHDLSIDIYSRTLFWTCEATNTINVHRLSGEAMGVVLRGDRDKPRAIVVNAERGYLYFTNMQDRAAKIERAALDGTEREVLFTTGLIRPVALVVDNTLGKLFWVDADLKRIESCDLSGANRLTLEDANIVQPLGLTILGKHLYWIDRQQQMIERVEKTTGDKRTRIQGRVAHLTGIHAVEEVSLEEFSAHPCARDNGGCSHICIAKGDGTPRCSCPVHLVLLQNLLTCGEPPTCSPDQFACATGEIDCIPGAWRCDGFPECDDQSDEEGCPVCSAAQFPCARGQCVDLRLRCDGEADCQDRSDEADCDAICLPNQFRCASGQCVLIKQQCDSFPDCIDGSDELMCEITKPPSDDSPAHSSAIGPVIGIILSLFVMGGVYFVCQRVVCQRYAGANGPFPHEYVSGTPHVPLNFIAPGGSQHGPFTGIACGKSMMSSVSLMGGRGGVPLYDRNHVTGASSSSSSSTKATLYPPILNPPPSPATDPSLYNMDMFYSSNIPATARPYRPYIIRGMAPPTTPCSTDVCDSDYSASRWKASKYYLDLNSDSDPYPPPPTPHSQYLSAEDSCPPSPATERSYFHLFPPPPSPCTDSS
Protocol: HOB-03-CE6 osteoblastic cells developed by Wyeth Ayerst (Philadelphia, Pa.) were seeded into 24-well plates at 150,000 cells per well in 1 ml of the growth media (D-MEM/F12 phenol red-free) containing 10% (v/v) heat-inactivated FBS, 1×penicillin streptomycin, and 1X Glutamax-1, and incubated overnight at 34° C. The following day, the cells were transfected using Lipofectamine 2000® (as described by the manufacturer, Invitrogen) in OptiMEM (Invitrogen) with 0.35 μg/well of LRP5, HBM, or control plasmid DNA (empty vector pcDNA3.1) and either Wnt1 or Wnt3 a plasmid DNA. […] All wells were transfected with 0.025 μg/well of CMV beta-galactosidase plasmid DNA and 0.35 μg/well 16X TCF(ASyluciferase reporter DNA (developed by Ramesh Bhat, Wyeth-Ayerst (Philadelphia, Pa.)). After 4 hours of incubation, the cells were rinsed and 1 ml of fresh growth media was added to each well. The cells were cultured overnight at 34° C., followed by a wash and a change of media. Cells were cultured for an additional 18-24 hours at 37° C. Cells were then lysed with 50 μl/well of 1X lysis buffer. The extracts were assayed for beta-galactosidase activity (Galacto Reaction Buffer Diluent & Light Emission Accelerator, Tropix) using 5 μl extract+50 μl beta-galactosidase diluent and luciferase activity (Luciferase Assay Reagent, Promega) using 20 μl extract.

canonical Wnt signaling = conditions: Bafico et al.; Dkk-1 added at 30 pM; cited from earlier work
LRP6 = LRP6 (Homo sapiens, UniProt O75581); test: Cell-based TCF reporter high-throughput assay, LRP6 cDNA; set-up: Full length LRP6 was isolated from the pED6dpc4 vector; expressed in transfected cells; host or cells: HOB-03-CE6 osteoblastic cells; U2OS osteosarcoma cells; HEK293; conditions: U2OS cells, Wnt1 or Wnt3a/Wnt1 co-transfected, FIG. 20
Chain of LRP6 (O75581 20-1613): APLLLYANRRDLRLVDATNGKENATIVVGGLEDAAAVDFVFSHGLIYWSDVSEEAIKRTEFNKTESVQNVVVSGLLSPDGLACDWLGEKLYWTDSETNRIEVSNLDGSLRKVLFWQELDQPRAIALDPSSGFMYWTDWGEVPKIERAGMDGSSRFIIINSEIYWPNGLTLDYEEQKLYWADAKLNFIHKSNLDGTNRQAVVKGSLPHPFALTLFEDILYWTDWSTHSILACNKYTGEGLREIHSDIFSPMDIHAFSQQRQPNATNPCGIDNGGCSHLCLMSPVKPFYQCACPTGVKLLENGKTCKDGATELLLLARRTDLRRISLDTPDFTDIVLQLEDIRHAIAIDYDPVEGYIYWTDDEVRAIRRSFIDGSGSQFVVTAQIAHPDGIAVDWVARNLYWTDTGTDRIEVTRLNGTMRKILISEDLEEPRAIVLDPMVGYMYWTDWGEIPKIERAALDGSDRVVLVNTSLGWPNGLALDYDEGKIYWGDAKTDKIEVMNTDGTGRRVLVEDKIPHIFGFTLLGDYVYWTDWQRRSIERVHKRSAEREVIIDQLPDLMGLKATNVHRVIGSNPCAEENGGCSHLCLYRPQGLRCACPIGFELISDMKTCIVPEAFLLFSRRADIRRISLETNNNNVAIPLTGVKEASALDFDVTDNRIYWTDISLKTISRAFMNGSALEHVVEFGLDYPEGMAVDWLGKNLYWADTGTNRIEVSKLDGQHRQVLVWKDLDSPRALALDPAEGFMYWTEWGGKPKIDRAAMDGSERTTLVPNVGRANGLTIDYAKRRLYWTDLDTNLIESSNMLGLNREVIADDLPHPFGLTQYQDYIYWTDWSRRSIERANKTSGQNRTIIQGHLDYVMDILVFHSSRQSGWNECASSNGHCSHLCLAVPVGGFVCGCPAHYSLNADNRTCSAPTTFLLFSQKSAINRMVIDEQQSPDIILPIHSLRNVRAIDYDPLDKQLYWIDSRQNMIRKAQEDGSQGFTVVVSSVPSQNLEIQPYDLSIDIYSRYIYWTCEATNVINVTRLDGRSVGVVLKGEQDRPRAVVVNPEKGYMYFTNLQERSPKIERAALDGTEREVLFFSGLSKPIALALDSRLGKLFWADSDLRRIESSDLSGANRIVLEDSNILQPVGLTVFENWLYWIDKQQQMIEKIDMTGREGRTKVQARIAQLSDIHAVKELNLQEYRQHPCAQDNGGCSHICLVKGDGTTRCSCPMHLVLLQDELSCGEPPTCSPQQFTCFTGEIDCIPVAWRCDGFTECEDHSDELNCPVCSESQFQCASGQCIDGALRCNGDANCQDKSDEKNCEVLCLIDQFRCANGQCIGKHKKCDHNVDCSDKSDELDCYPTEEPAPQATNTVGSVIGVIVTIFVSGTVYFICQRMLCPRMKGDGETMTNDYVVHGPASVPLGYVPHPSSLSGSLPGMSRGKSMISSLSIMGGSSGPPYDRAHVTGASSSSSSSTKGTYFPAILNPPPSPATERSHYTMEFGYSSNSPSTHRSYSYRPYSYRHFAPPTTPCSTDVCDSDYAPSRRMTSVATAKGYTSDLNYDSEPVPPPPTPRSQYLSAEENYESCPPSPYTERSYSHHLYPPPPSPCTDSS
From the text: To develop a high throughput assay, the TCF-luciferase assay described in Example 7 was modified utilizing low level expression of endogenous LRP5/6 in U2OS and HEK293 cells. However, HOB-03-CE6 cells and any other cells which show a differential response to Dkk depending on whether LRP5, LRP6 or HBM are expressed. Using U2OS (human osteosarcoma) and HEK293 (ATCC) cells, the TCF-luciferase and tk-Renilla reporter element constructs were co-transfected along with Wnt3a/1 and Dkk. Wnt3a alone, by using endogenous LRP5/6, was able to stimulate TCF reporter gene activation. When Dkk, is co-transfected with Wnt3a/Wnt 1 and reporters (TCF-luci and tk-Renilla), DEkk represses reporter element activity. In addition, the TCF-luci signal is activated by Wnt3a/Wnt1 can be repressed by the addition of Dkk-enriched conditioned media to the cells containing Wnt3a/Wnt1 and reporters.
The Dkk-mediated repression of the reporter is dependent upon the concentration of transfected Dkk cDNA or on the amount of Dkk-conditioned media added. In addition, the Dkk-mediated reporter suppression can be altered by the co-transfection of LRP5, LRP6, and HBM cDNAs in the U2OS or HEK293 cells. In general, U2OS cells show greater sensitivity to Dkk-mediated reporter suppression than that in HEK-293 cells. […]

## Dkk-1: Dickkopf-1 protein, antagonist of the Wnt pathway; expressed from human cDNA (RNA or plasmid)
Canonical Wnt pathway
  embryos displaying enlarged anterior structures (big heads): over 90%
[1]
  repression of HBM-mediated Wnt signaling: unable to repress
HBM
  HBM/Wnt1 mediated TCF-luciferase activity: no effect; also recorded: had no effect on LRP5 or HBM mediated TCF-luciferase activity
Canonical Wnt signaling
  functional consequence of Dkk-1/LRP6 interaction on canonical Wnt signaling: repression of the canonical Wnt signaling
LRP6
  Dkk-mediated repression of LRP6 signaling (TCF reporter): represses
LRP6; listed as Dkk1
  Dkk-mediated repression of LRP6 signaling (TCF reporter): maximal
